In the test the target is T1, LHRH (Rattus norvegicus, UniProt P30969).
T1 construct: endogenous in cells; host or cells: pituitary cells (own knowledge of the cited method)
T1 sequence (P30969 1-327): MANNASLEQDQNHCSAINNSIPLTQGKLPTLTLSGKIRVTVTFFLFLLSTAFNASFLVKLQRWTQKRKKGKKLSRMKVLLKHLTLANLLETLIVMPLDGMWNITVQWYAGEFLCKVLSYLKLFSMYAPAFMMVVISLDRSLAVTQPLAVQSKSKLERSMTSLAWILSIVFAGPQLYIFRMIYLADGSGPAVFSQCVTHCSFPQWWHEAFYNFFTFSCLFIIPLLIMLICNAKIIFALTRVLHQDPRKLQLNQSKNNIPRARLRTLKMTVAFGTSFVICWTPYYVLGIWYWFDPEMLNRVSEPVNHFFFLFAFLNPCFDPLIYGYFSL
As to the kind of experiment: in vitro test for LHRH antagonist potency (pA2), shift of the leuprolide response curve. To be noted: negative logarithm of antagonist concentration required to shift the response curve produced by the agonist leuprolide to two-fold higher concentration. It counts as cell-based. Here is the method: Representative compounds of the present invention were evaluated in an in vitro test for LHRH antagonist potency (pA2). The test employed the method detailed in F. Haviv, et al. J. Med. Chem., 32: 2340-2344 (1989). The values of pA2 are the negative logarithms of the concentration of the particular antagonist test compound required to shift the response curve produced by the agonist leuprolide to two-fold higher concentration. (Leuprolide is the LHRH agonist having the structure 5-oxo-Pro^1 -His^2 -Trp^3 -Ser^4 -Tyr^5 -D-Leu^6 -Leu^7 -Arg^8 -Pro-^9 -NHEt and is disclosed and claimed in U.S. Pat. No. 4,005,063.) Typically pA2 values of 6.0 or greater are indicative of acceptable LHRH antagonist potency, with compounds having pA2 values of 9.0 or greater being preferred.

Where a SMILES comes first, the peptide text is derived from it. Bridges are numbered along the chain shown (N, C = ends). [ ]: non-standard residue; d: D form. The star is where a group is joined. Propanoyl(3-(4-Cl-Ph)) = O=C(CCc1ccc(Cl)cc1)*; Phenylacetyl(4-F) = O=C(Cc1ccc(F)cc1)*; Lys(iPr) = CC(C)NCCCC[C@H](N)C(=O)O; NMeY = CN[C@@H](Cc1ccc(O)cc1)C(=O)O; Nicotinoyl = O=C(c1cccnc1)*

As a reminder, the pA2 is the negative logarithm of the molar antagonist concentration that doubles the agonist concentration needed for the same response. With “4FPhenylacetyl-c-{DGlu-Ser-NMeTyr-DLys(Nicotinyl)-Leu-Lys(N-epsilon-Isopropyl)-Pro-DLys}-NH2 [Example 15]”, the pA2 was determined as 5.66.

A word on the Kb: it is the equilibrium dissociation constant of an antagonist, usually derived from a functional assay. Regarding `CC(=O)N[C@@H]1CCCCNC(=O)CC[C@H](C(N)=O)NC(=O)[C@@H]2CCCN2C(=O)[C@H](CCCCNC(C)C)NC(=O)[C@H](CC(C)C)NC(=O)[C@@H](CCCCNC(=O)c2cccnc2)NC(=O)[C@H](Cc2ccc(O)cc2)N(C)C(=O)[C@H](CO)NC1=O` [Example 9, Ac-c-{DLys-Ser-NMeTyr-DLys(Nicotinyl)-Leu-Lys(N-epsilon-Isopropyl)-Pro-DGlu}-NH2] (Ac-[dK]S[NMeY][dK](Nicotinoyl)L[Lys(iPr)]P[dE]-NH2; lactam 1-8), the Kb is 6.17 nM.

In the case of `CC(C)C[C@@H]1NC(=O)[C@@H](CCCCNC(=O)c2cccnc2)NC(=O)[C@H](Cc2ccc(O)cc2)N(C)C(=O)[C@H](CO)NC(=O)[C@H](NC(=O)Cc2ccc(F)cc2)CCCCNC(=O)CC[C@H](C(N)=O)NC(=O)[C@@H]2CCCN2C(=O)[C@H](CCCCNC(C)C)NC1=O` [Example 10, 4F-Phenylacetyl-c-{DLys-Ser-NMeTyr-DLys(Nicotinyl)-Leu-Lys(N-epsilon-Isopropyl)-Pro-DGlu}-NH2] ({Phenylacetyl(4-F)}-[dK]S[NMeY][dK](Nicotinoyl)L[Lys(iPr)]P[dE]-NH2; lactam 1-8), the antagonist equilibrium constant (Kb) was 724 nM.

`CC(=O)N[C@@H]1CCC(=O)NCCCC[C@H](C(N)=O)NC(=O)[C@@H]2CCCN2C(=O)[C@H](CCCCNC(C)C)NC(=O)[C@H](CC(C)C)NC(=O)[C@@H](CCCCNC(=O)c2cccnc2)NC(=O)[C@H](Cc2ccc(O)cc2)N(C)C(=O)[C@H](CO)NC1=O` [Example 11, Ac-c-{DGlu-Ser-NMeTyr-DLys(Nicotinyl)-Leu-Lys(N-epsilon-Isopropyl)-Pro-DLys}-NH2] (Ac-[dE]S[NMeY][dK](Nicotinoyl)L[Lys(iPr)]P[dK]-NH2; lactam 1-8): the antagonist dissociation constant (Kb) is 20.4 nM.

For the molecule `CC(C)C[C@@H]1NC(=O)[C@@H](CCCCNC(=O)c2cccnc2)NC(=O)[C@H](Cc2ccc(O)cc2)N(C)C(=O)[C@H](CO)NC(=O)[C@H](NC(=O)CCc2ccc(Cl)cc2)CCCCNC(=O)CC[C@H](C(N)=O)NC(=O)[C@@H]2CCCN2C(=O)[C@H](CCCCNC(C)C)NC1=O` [Example 13, 4ClPhenylpropionyl-c-{DLys-Ser-NMeTyr-DLys(Nicotinyl)-Leu-Lys(N-epsilon-Isopropyl)-Pro-DGlu}-NH2] ({Propanoyl(3-(4-Cl-Ph))}-[dK]S[NMeY][dK](Nicotinoyl)L[Lys(iPr)]P[dE]-NH2; lactam 1-8), the Kb is 19.1 nM.

Consider `CC(C)C[C@@H]1NC(=O)[C@@H](CCCCNC(=O)c2cccnc2)NC(=O)[C@H](Cc2ccc(O)cc2)N(C)C(=O)[C@H](CO)NC(=O)[C@H](NC(=O)CCc2ccc(Cl)cc2)CCCCNC(=O)CC[C@H](C(N)=O)NC(=O)CNC(=O)[C@H](CCCCNC(C)C)NC1=O` [Example 16, 4ClPhenylpropionyl-c-{DLys-Ser-NMeTyr-DLys(Nicotinyl)-Leu-Lys(N-epsilon-Isopropyl)-Gly-DGlu}-NH2] ({Propanoyl(3-(4-Cl-Ph))}-[dK]S[NMeY][dK](Nicotinoyl)L[Lys(iPr)]G[dE]-NH2; lactam 1-8), for which the Kb is 40.7 nM.

With `CC(C)C[C@@H]1NC(=O)[C@@H](CCCCNC(=O)c2cccnc2)NC(=O)[C@H](Cc2ccc(O)cc2)N(C)C(=O)CNC(=O)[C@H](NC(=O)CCc2ccc(Cl)cc2)CCCCNC(=O)CC[C@H](C(N)=O)NC(=O)CNC(=O)[C@H](CCCCNC(C)C)NC1=O` [Example 18, 4ClPhepropionyl-c-{DLys-Gly-NMeTyr-DLys(Nicotinyl)-Leu-Lys(N-epsilon-Isopropyl)-Gly-DGlu}-NH2] ({Propanoyl(3-(4-Cl-Ph))}-[dK]G[NMeY][dK](Nicotinoyl)L[Lys(iPr)]G[dE]-NH2; lactam 1-8), the Kb was greater than 1000 nM.

Regarding “Ac-D2Nal-D4ClPhe-c-{DGlu-Ser-NMeTyr-DLys(Nicotinyl)-Leu-Lys(N-epsilon-Isopropyl)-Pro-DLys}-NH2 [Example 7]”, the pA2 was 9.58.

With “Ac-D2Nal-D4ClPhe-c-{DGlu-Ser-NMeTyr-DLys(Nicotinyl)-Leu-Lys(N-epsilon-Isopropyl)-Pro-Lys}-NH2 [Example 12]”, the pA2 came out at 9.77.

As for “Ac-D2Nal-D4ClPhe-c-{DLys-Ser-NMeTyr-DLys(Nicotinyl)-Leu-Lys(N-epsilon-Isopropyl)-Pro-DGlu}-NH2 [Example 1]”, the pA2 was found to be 10.16.

Consider “Ac-D2Nal-D4ClPhe-c-{DLys-Ser-NMeTyr-DLys(Nicotinyl)-Leu-Lys(N-epsilon-Isopropyl)-Pro-Glu}-NH2 [Example 4]”, for which the pA2 worked out at 10.05.

“Ac-D2Nal-D4ClPhe-c-{DLys-Ser-Tyr-DLys(Nicotinyl)-Leu-Lys(N-epsilon-Isopropyl)-Pro-DGlu}-NH2 [Example 8]”: the pA2 was 9.66.

On to “Ac-D2Nal-D4ClPhe-c-{DLys-Ser-Tyr-DLys(Nicotinyl)-Leu-Lys(N-epsilon-Isopropyl)-Pro-Glu}-NH2 [Example 2]”, for which the pA2 is given as 9.27.

In the case of “Ac-D2Nal-D4ClPhe-c-{DOrn-Ser-NMeTyr-DLys(Nicotinyl)-Leu-Lys(N-epsilon-Isopropyl)-Pro-DGlu}-NH2 [Example 14]”, the pA2 amounted to 9.52.

For “Ac-D2Nal-D4ClPhe-c-{Glu-Ser-NMeTyr-DLys(Nicotinyl)-Leu-Lys(N-epsilon-Isopropyl)-Pro-DOrn}-NH2 [Example 6]”, the pA2 came to 7.54.

In the case of “Ac-D2Nal-D4ClPhe-c-{Lys-Ser-NMeTyr-DLys(Nicotinyl)-Leu-Lys(N-epsilon-Isopropyl)-Pro-DGlu}-NH2 [Example 3]”, the pA2 was determined as 8.73.

As to “Ac-D2Nal-D4ClPhe-c-{Lys-Ser-NMeTyr-DLys(Nicotinyl)-Leu-Lys(N-epsilon-Isopropyl)-Pro-Glu}-NH2 [Example 5]”, the pA2 was 8.2.

For “NAc-D2Nal D4ClPhe-c-{DLys-Gly-NMeTyr-DLys(Nicotinyl)-Leu-Lys(N-epsilon-Isopropyl)-Gly-DGlu}-NH2 [Example 17]”, the pA2 was found to be 8.29.

As for “NAc-c-{DGlu-Gly-NMeTyr-DLys(Nicotinyl)-Leu-Lys(N-epsilon-Isopropyl)-Sar-DLys}-NH2 [Example 19]”, the pA2 was found to be 5.95.
